These results are taken from patent US20050208549A1, “Testing endosymbiont cellular organelles and compounds identifiable therewith” (priority 2000, published 2005).

Each structure is given as a SMILES string.

The subject of data set [1] is peripheral blood mononuclear cells (PBMCs). The data set is described as follows: NASBA ratio of mitochondrial DNA to chromosomal DNA in cultured PBMCs. It counts as cell-based. The following applies: culture period of five days, 6 μM and 60 μM. Here is the method: In Table 1, the primers and probes used in the examples are summarized. Standard NASBA nucleic acid amplification reactions were performed in a 20 μl reaction volume and contained: 40 mM Tris-pH 8.5, 70 mM KCl, 12 mM MgCl2, 5 mM dithiothreitol, 1 mM dNTPs (each), 2 mM rNTPs (each), 0.2 μM primer (each), 0.05 μM molecular beacon, 375 mM sorbitol, 0.105 μg/μl bovine serum albumin, 6.4 units AMV RT, 32 units T7 RNA polymerase, 0.08 units RNAse H and input nucleic acid. The complete mixture, except the enzymes, sorbitol and/or bovine serum albumin was, prior to adding the enzyme mixture, heated to 65° C. for two minutes in order to denature any secondary structure in the RNA and to allow the primers to anneal. After cooling the mixture to 41° C., the enzymes were added. The amplification took place at 41° C. for 90 minutes in a fluorimeter (CytoFluor 2000) and the fluorescent signal was measured every minute (using the filter set 530/25 nm and 485/30 nm). […]
To achieve quantification, a dilution series of target sequences for a particular primer set was amplified and the time points at which the reactions became positive (the time to positivity, TTP) were plotted against the input amounts of nucleic acid. This way a calibration curve was created that could be used to read TTP values of reactions with unknown amounts of input and deduce the input amount. […]

The next data set deals with Fibroblasts. The data set is described as follows: One-tube duplex NASBA ratio of mitochondrial RNA and chromosomal DNA in fibroblasts cultured with ddC. Format: cell-based. Here is the method: In this example, the NASBA nucleic acid amplification reactions for DNA target sequences were performed in a 20 μl reaction volume and contained: 40 mM Tris-pH 8.5, 70 mM KCl, 12 mM MgCl2, 5 mM dithiotreitol, 1 mM dNTPs (each), 2 mM rNTPs (each), 0.2 μM primer (each), 0.05 μM molecular beacon, 1.5 units restriction enzyme Msp I, 375 mM sorbitol, 0.105 μg/μl bovine serum albumin, 6.4 units AMV RT, 32 units T7 RNA polymerase, 0.08 units RNAse H and input nucleic acid. The complete mixture, except the enzymes sorbitol and bovine serum albumin, was, prior to adding the enzyme mixture, incubated at 37° C. for 25 minutes and subsequently heated to 95° C. for two minutes in order to denature the DNA and to allow the primers to anneal. After cooling the mixture to 41° C., the enzyme mixture was added. The amplification took place at 41° C. for 90 minutes in a fluorimeter (CytoFluor 2000) and the fluorescent signal was measured every minute (using the filter set 530/25 nm and 485/30 nm). To achieve quantification, a dilution series of target sequence for a particular primer set was amplified and the time points at which the reactions became positive (the time to positivity, TTP) were plotted against the input amounts of nucleic acid. This way a calibration curve was created that could be used to read TTP values of reactions with unknown amounts of input and deduce the input amount. […] After five days, the cells were harvested and analyzed for an amount of chromosomal DNA (primers SnrpD p1 and SnrpD2 p2 and probe SnrpD mb) with the described NASBA protocol in the chapter “Used ingredients and general methodology” and compared with the NASBA protocol as described in this example. […]
Different ratios of mitochondrial RNA target and chromosomal DNA target in a plasmid were analyzed in this example: 2×10^3 U1a DNA/5×10^4 Mt RNA, 2×10^3 U1a DNA/2.5×10^5 Mt RNA, 2×10^3 U1a DNA/5×10^5 Mt RNA, 2×10^3 U1a DNA/2.5×10^6 Mt RNA, 2×10^3 U1a DNA/5×10^6 Mt RNA, 2×10^3 U1a DNA/10^7 Mt RNA, 2×10^3 U1a DNA/2.5×10^7 Mt RNA molecules were included. […]

`Cc1cn([C@H]2C[C@H](N=[N+]=[N-])[C@@H](CO)O2)c(=O)[nH]c1=O` [AZT]: in data set [1], the “change in ratio of mitochondrial DNA to chromosomal DNA” value is “no measurable change”.
Take `Nc1ccn([C@H]2CC[C@@H](CO)O2)c(=O)n1` [ddC]: in the data set on Fibroblasts (ddC 30 μM eight weeks, then without ddC (week 10, 12, 14 and 16)), the “amount of mitochondrial RNA in continued culture in the absence of ddC” value was “clear rebound”. Besides, the “amount of mitochondrial RNA in continued culture in the presence of ddC” value with Fibroblasts (ddC 30 μM, after week eight, another eight weeks) is listed as “remains very low”. Besides, the “mitochondrial RNA of fibroblasts in the presence of ddC” value in the data set with Fibroblasts (ddC 30 μM, eight weeks, FIG. 23) is “lose their mitochondrial RNA”.
